PubChem BioAssay AID179 (DTP/NCI, 2004)
pEC50, pIC50: −log10 of the molar value. Values joined by “and” are separate entries in the source; they are usually repeats but may differ in a detail not shown here. Equal entries are not always repeated. Active and inactive are the calls of the source.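 Rule for the calls: active = compounds giving half or more protection of infected cells from virus-caused growth loss, again on retest; inactive = the rest.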

System: CEM cells HIV-1 protection, formazan growth assay
Assay: NCI AIDS Antiviral Assay
Conditions: for pIC50: measured here: growth of uninfected CEM cells
Summary of the method: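 Five concentrations of each compound were applied to infected and uninfected human CEM cells. Protection from HIV-1 was judged from growth measured with a soluble formazan assay.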

Structure (SMILES)	pEC50	pIC50	outcome
Nn1c(CCCCCCCCc2nnc(COc3ccc(Cl)cc3Cl)n2N)nnc1COc1ccc(Cl)cc1Cl	< 3.70	4.37	–
COc1ccc(-c2cc(-c3ccccc3)c3c(n2)-c2ccccc2NC(=O)C3)cc1	< 3.70	4.42	–
[N-]=[N+]=Nc1ccc2c(c1)Sc1ccccc1N2CCCCN1CCN(C(=O)CCNC(=O)Cc2ccc(C(=O)c3ccccc3)cc2)CC1	< 3.70	5.41	–
N#CCOc1ccc(/C=C/C(=O)c2ccc(Cl)cc2)cc1	< 3.70	4.76	–
CN1C(=O)C(O)CC1c1ccccc1C(F)(F)F (centres undefined)	< 3.70	< 3.70	–
CC(C)(C)c1cc(C(C)(C)C)c(N=O)c(C(C)(C)C)c1	< 3.70	< 3.70	–
CC(=O)Nc1ccc(-c2nnc(SCC(=O)Nc3ccc(C)cc3)o2)cc1	< 4.17	4.93	–
COc1c2c(cc3c1[C@@H]1Oc4c(ccc(O)c4CC=C(C)C)[C@@H]1CO3)OC(C)(C)C=C2	5.65	4.63	–
Cc1c(C)c2c(c(N)c1C#N)C(=O)N(NC(=S)Nc1ccccc1)C2=O	< 3.70	3.80	–
O=C(NCCc1ccccn1)c1ccc2cc(C(=O)N3CC(CCl)c4ccc([N+](=O)[O-])cc43)[nH]c2c1 (centres undefined)	< 3.70	4.13	–
CCN(CC)C(=S)S[Se](SC(=S)N(CC)CC)(SC(=S)N(CC)CC)SC(=S)N(CC)CC	< 3.70	6.10	–
CCN(CC)c1ccc2cc(C(=O)Nc3nc(C45CC6CC(CC(C6)C4)C5)cs3)c(=O)oc2c1	< 3.70	< 3.70	–
O=S1OC[C@H](CCCl)O1 (some centres undefined)	< 3.70	< 3.70	–
Nc1ccn(CC2OCC(CO)O2)c(=O)n1 (centres undefined)	< 2.46	2.53 and 2.52	–
O=CNc1ccccc1OCCOc1ccccc1NC=O	< 3.70	< 3.70	–
C=CCN1CCC2(CC1)NC(=O)c1ccccc1O2	< 3.70	< 3.70	–
O=C(NNc1ccccc1)C(O)C(O)C(O)C(O)C(O)CO (centres undefined)	–	–	inactive
CC(=O)Nn1c(Cc2ccc(Cl)cc2)nn(C)c1=O	–	–	inactive
Nc1nc(=S)c2c(ncn2CCO)[nH]1	< 3.49	3.90	–
C=CCn1c(=S)sc2c(C(=O)OCC)c3c(C)cc(C)cn3c2c1=O	< 5.41	< 5.41	–
CCOC(=O)C(Cc1cn(C(C)=O)c2ccccc12)P(=O)(OCC)OCC (centres undefined)	< 3.70	< 3.70	–
COC(=O)c1ncn(C)c1O	< 3.70	< 3.70	–
CC(=O)CN(Cc1cc(C)c2c(c1)c1ccccc1n2Cc1ccccc1)S(=O)(=O)c1ccc(C)cc1	< 4.71	< 4.71	–

Structure (SMILES)	pEC50	pIC50	outcome
O=NNc1ccc(-c2ccccc2)cn1	< 3.70	4.36	–
COc1ccc(N=C2C(=Nc3ccc(OC)cc3)N(c3ccc(N(C)C)cc3)C(=S)N2c2ccc(OC)cc2)cc1	< 4.70	6.16	–
CC(C)COC(=O)N1N=NC2C3CC(=O)C(O3)C21 (centres undefined)	< 3.15	3.91	–
CC(C)(N)C(=O)N[C@@H]1C(=O)N2[C@@H]1SC(C)(C)[C@@H]2C(=O)O	< 3.70	< 3.70	–
Nn1c(N=Nc2c(O)[nH]c3ccccc23)n[nH]c1=S	< 4.47	< 4.47	–
COc1ccc(/C=N/Nc2nnc3c(n2)[nH]c2ccc(Br)cc23)cc1	< 3.70	< 3.70	–
CCO[C@H]1N(C2CC(N=[N+]=[N-])C(CO)O2)C(=O)NC(=O)[C@]1(C)Cl (some centres undefined)	< 3.70	< 3.70	–
COc1ccccc1/C=C1\Cc2ccccc2C1=O	< 4.68	< 4.68	–
Cn1c2ccccc2c2nnc(NCCCO)nc21	< 3.70	3.83	–
c1ccc(N2N=NC3C4CC(C5COCC54)C32)cc1 (centres undefined)	< 3.70	< 3.70	–
O=C1c2c(c3c4ccccc4[nH]c3c3[nH]c4ccccc4c23)C(=O)N1Cc1ccccc1	< 3.83	4.99	–
O=C1CN(Cc2ccccc2)CC(=O)N2C(c3ccccc3)CCCN12 (centres undefined)	–	–	inactive
O=C1Oc2ccccc2CC1C(=O)c1ccc(Cl)cc1 (centres undefined)	< 4.74	< 4.74	–
N#C/C(=C\NC(N)=S)C(=O)c1ccc2ccccc2c1	–	–	inactive
CCOC(=O)C1C=C1C(C)(C)O (centres undefined)	< 3.82	3.87	–
COc1ccc(/C=C2\NC(=S)N(/C=C3\C(=O)Oc4ccccc4C3=O)C2=O)cc1	< 3.70	3.83	–
O=C(CC(C(=O)c1ccco1)c1ccsc1)c1ccco1 (centres undefined)	< 3.70	3.97	–
CCOC(=O)C[C@@H](C)[C@]1(C(=O)OC)CCCC1=O	< 3.15	< 3.15	–
COS(=O)c1cc(Cl)cc(Cl)c1O (centres undefined)	–	–	inactive
O=C(N/N=C/c1ccccc1O)c1ccccc1Nc1ccccc1C(=O)N/N=C/c1ccccc1O	< 4.37	5.74	–
Cc1ccc(S(=O)(=O)NC(C)C(=O)O)cc1 (centres undefined)	–	–	inactive
NC(=O)Nc1ccc(S(=O)(=O)c2ccc(N)cc2)cc1	< 3.70	< 3.70	–
